Test results from ChEMBL document CHEMBL2440076, “New triarylpyrazoles as broad-spectrum anticancer agents: design, synthesis, and biological evaluation” (Eur J Med Chem, 2013).

Legend:
[1] = system: MDA-MB-231; assay: Growth inhibition of human MDA-MB-231 cells assessed as cell growth at 10 uM after 48 hrs by sulforhodamine B assay; type: functional; settings: MDA-MB-231, 48 h, read-out: Activity
[2] = system: LOX IMVI; assay: Growth inhibition of human LOXIMVI cells after 48 hrs by sulforhodamine B assay; type: functional
[3] = system: HL-60(TB); assay: Growth inhibition of human HL-60(TB) cells after 48 hrs by sulforhodamine B assay; type: functional; settings: HL-60, 48 h; for CC50: read-out: LC50 (the source's name)
[4] = system: HCT-15; assay: Growth inhibition of human HCT15 cells after 48 hrs by sulforhodamine B assay; type: functional; settings: HCT-15, 48 h
[5] = system: M14; assay: Growth inhibition of human M14 cells assessed as cell growth at 10 uM after 48 hrs by sulforhodamine B assay; type: functional; settings: M14, 48 h, read-out: Activity
[6] = system: MDA-MB-468; assay: Growth inhibition of human MDA-MB-468 cells after 48 hrs by sulforhodamine B assay; type: functional, cell-based; settings: MDA-MB-468, 48 h; for CC50: read-out: LC50 (the source's name)
[7] = system: NCI-H322M; assay: Growth inhibition of human NCI-H322M cells assessed as cell growth at 10 uM after 48 hrs by sulforhodamine B assay; type: functional; settings: read-out: Activity
[8] = system: 786-0; assay: Growth inhibition of human 786-0 cells assessed as cell growth at 10 uM after 48 hrs by sulforhodamine B assay; type: functional; settings: 786-0, 48 h, read-out: Activity
[9] = system: K562; assay: Growth inhibition of human K562 cells after 48 hrs by sulforhodamine B assay; type: functional; settings: K562, 48 h; for CC50: read-out: LC50 (the source's name)
[10] = Growth inhibition of human Hs 578T cells assessed as cell growth at 10 uM after 48 hrs by sulforhodamine B assay; type: functional; settings: read-out: Activity
[11] = system: K562; assay: Growth inhibition of human K562 cells assessed as cell growth at 10 uM after 48 hrs by sulforhodamine B assay; type: functional; settings: K562, 48 h, read-out: Activity
[12] = system: SK-MEL-28; assay: Growth inhibition of human SK-MEL-28 cells after 48 hrs by sulforhodamine B assay; type: functional; settings: SK-MEL-28, 48 h
[13] = system: SK-OV-3; assay: Growth inhibition of human SKOV3 cells assessed as cell growth at 10 uM after 48 hrs by sulforhodamine B assay; type: functional; settings: SK-OV-3, 48 h, read-out: Activity
[14] = system: UO-31; assay: Growth inhibition of human UO31 cells after 48 hrs by sulforhodamine B assay; type: functional; settings: UO-31, 48 h; for CC50: read-out: LC50 (the source's name)
[15] = system: RPMI-8226; assay: Growth inhibition of human RPMI8226 cells after 48 hrs by sulforhodamine B assay; type: functional, cell-based; settings: RPMI-8226, 48 h; for CC50: read-out: LC50 (the source's name)
[16] = system: SF-295; assay: Growth inhibition of human SF295 cells after 48 hrs by sulforhodamine B assay; type: functional, cell-based; settings: SF-295, 48 h; for CC50: read-out: LC50 (the source's name)
[17] = system: A498; assay: Growth inhibition of human A498 cells assessed as cell growth at 10 uM after 48 hrs by sulforhodamine B assay; type: functional; settings: A498, 48 h, read-out: Activity
[18] = system: 786-0; assay: Growth inhibition of human 786-0 cells after 48 hrs by sulforhodamine B assay; type: functional; settings: 786-0, 48 h; for CC50: read-out: LC50 (the source's name)
[19] = system: IGROV-1; assay: Growth inhibition of human IGROV1 cells after 48 hrs by sulforhodamine B assay; type: functional; settings: IGROV-1, 48 h
[20] = system: UACC-62; assay: Growth inhibition of human UACC62 cells assessed as cell growth at 10 uM after 48 hrs by sulforhodamine B assay; type: functional; settings: UACC-62, 48 h, read-out: Activity
[21] = Growth inhibition of human HCC2998 cells after 48 hrs by sulforhodamine B assay; type: functional; settings: HCC 2998, 48 h; for CC50: read-out: LC50 (the source's name)
[22] = system: HOP-62; assay: Growth inhibition of human HOP62 cells after 48 hrs by sulforhodamine B assay; type: functional; settings: HOP-62, 48 h; for CC50: read-out: LC50 (the source's name)
[23] = system: ACHN; assay: Growth inhibition of human ACHN cells assessed as cell growth at 10 uM after 48 hrs by sulforhodamine B assay; type: functional; settings: read-out: Activity
[24] = system: MDA-MB-435; assay: Growth inhibition of human MDA-MB-435 cells after 48 hrs by sulforhodamine B assay; type: functional, cell-based; settings: MDA-MB-435, 48 h; for CC50: read-out: LC50 (the source's name)
[25] = system: MDA-MB-435; assay: Growth inhibition of human MDA-MB-435 cells assessed as cell growth at 10 uM after 48 hrs by sulforhodamine B assay; type: functional; settings: MDA-MB-435, 48 h, read-out: Activity
[26] = system: T47D; assay: Growth inhibition of human T47D cells assessed as cell growth at 10 uM after 48 hrs by sulforhodamine B assay; type: functional; settings: read-out: Activity
[27] = system: DU-145; assay: Growth inhibition of human DU145 cells assessed as cell growth at 10 uM after 48 hrs by sulforhodamine B assay; type: functional; settings: DU-145, 48 h, read-out: Activity
[28] = system: SNB-19; assay: Growth inhibition of human SNB19 cells assessed as cell growth at 10 uM after 48 hrs by sulforhodamine B assay; type: functional; settings: SNB-19, 48 h, read-out: Activity
[29] = system: OVCAR-4; assay: Growth inhibition of human OVCAR4 cells assessed as cell growth at 10 uM after 48 hrs by sulforhodamine B assay; type: functional; settings: OVCAR-4, 48 h, read-out: Activity
[30] = system: UO-31; assay: Growth inhibition of human UO31 cells assessed as cell growth at 10 uM after 48 hrs by sulforhodamine B assay; type: functional; settings: UO-31, 48 h, read-out: Activity
[31] = system: COLO 205; assay: Growth inhibition of human COLO205 cells after 48 hrs by sulforhodamine B assay; type: functional; settings: COLO 205, 48 h
[32] = system: MDA-MB-231; assay: Growth inhibition of human MDA-MB-231 cells after 48 hrs by sulforhodamine B assay; type: functional; settings: MDA-MB-231, 48 h
[33] = system: OVCAR-8; assay: Growth inhibition of human OVCAR8 cells assessed as cell growth at 10 uM after 48 hrs by sulforhodamine B assay; type: functional; settings: OVCAR-8, 48 h, read-out: Activity
[34] = system: T47D; assay: Growth inhibition of human T47D cells after 48 hrs by sulforhodamine B assay; type: functional; settings: for CC50: read-out: LC50 (the source's name)

Structure (SMILES): COc1cc(-c2nn(-c3cccc(NC(=O)Nc4ccc(Cl)c(C(F)(F)F)c4)c3)cc2-c2ccncc2)ccc1Cl
- growth at 10 µM [1]: -52.4%
- GI50 [2]: 1170 nM
- LC50 [2]: 17900 nM
- TGI [2]: 4610 nM
- GI50 [3]: 1170 nM
- TGI [3]: > 32500 nM
- CC50 [3]: > 32500 nM
- GI50 [4]: 1230 nM
- LC50 [4]: > 32500 nM
- TGI [4]: 7050 nM
- growth at 10 µM [5]: -11.7%
- GI50 [6]: 833 nM
- IC50 [6]: 830 nM
- TGI [6]: 4420 nM
- CC50 [6]: > 32500 nM
- growth at 10 µM [7]: 32.3%
- growth at 10 µM [8]: 15.1%
- GI50 [9]: 1210 nM
- TGI [9]: > 32500 nM
- CC50 [9]: > 32500 nM
- growth at 10 µM [10]: 2.21%
- growth at 10 µM [11]: 3.8%
- GI50 [12]: 1200 nM
- LC50 [12]: 19100 nM
- TGI [12]: 5010 nM
- growth at 10 µM [13]: 0.43%
- GI50 [14]: 865 nM
- TGI [14]: 4100 nM
- CC50 [14]: > 32500 nM
- GI50 [15]: 868 nM
- IC50 [15]: 870 nM
- TGI [15]: 3250 nM
- CC50 [15]: > 32500 nM
- GI50 [16]: 840 nM
- IC50 [16]: 840 nM
- TGI [16]: 2540 nM
- CC50 [16]: 14900 nM
- growth at 10 µM [17]: -6.71%
- GI50 [18]: 1610 nM
- TGI [18]: 8020 nM
- CC50 [18]: > 32500 nM
- GI50 [19]: 1200 nM
- LC50 (concentration killing 50% of cells) [19]: > 32500 nM
- TGI [19]: 4220 nM
- growth at 10 µM [20]: -43.8%
- GI50 [21]: 1550 nM
- TGI [21]: 7300 nM
- CC50 [21]: > 32500 nM
- GI50 [22]: 1310 nM
- TGI [22]: 6490 nM
- CC50 [22]: 31000 nM
- growth at 10 µM [23]: 9.33%
- GI50 [24]: 683 nM
- IC50 [24]: 680 nM
- TGI [24]: 1690 nM
- CC50 [24]: > 32500 nM
- growth at 10 µM [25]: -52.3%
- growth at 10 µM [26]: 0.62%
- growth at 10 µM [27]: 20.3%
- growth at 10 µM [28]: 26.4%
- growth at 10 µM [29]: 20.8%
- growth at 10 µM [30]: 11%
- GI50 [31]: 711 nM
- LC50 (concentration killing 50% of cells) [31]: 3480 nM
- TGI [31]: 1540 nM
- GI50 [32]: 760 nM
- LC50 [32]: 13300 nM
- TGI [32]: 2600 nM
- growth at 10 µM [33]: -19.9%
- GI50 [34]: 1230 nM
- TGI [34]: > 32500 nM
- CC50 [34]: > 32500 nM

Structure (SMILES): O=C(Nc1cccc(-n2cc(-c3ccncc3)c(-c3ccc(Cl)c(O)c3)n2)c1)Nc1cc(C(F)(F)F)cc(C(F)(F)F)c1
- growth at 10 µM [1]: -88.9%
- GI50 [2]: 712 nM
- LC50 [2]: 2750 nM
- TGI [2]: 1400 nM
- GI50 [3]: 1500 nM
- TGI [3]: 13500 nM
- CC50 [3]: > 50000 nM
- GI50 [4]: 474 nM
- LC50 [4]: 21200 nM
- TGI [4]: 3520 nM
- growth at 10 µM [5]: -37.2%
- GI50 [6]: 265 nM
- IC50 [6]: 270 nM
- TGI [6]: 2660 nM
- CC50 [6]: 37100 nM
- growth at 10 µM [7]: 5.11%
- growth at 10 µM [8]: -46.8%
- GI50 [9]: 433 nM
- TGI [9]: 3930 nM
- CC50 [9]: > 50000 nM
- growth at 10 µM [10]: -26%
- growth at 10 µM [11]: -19.6%
- GI50 [12]: 796 nM
- LC50 [12]: 3090 nM
- TGI [12]: 1570 nM
- growth at 10 µM [13]: -24.4%
- GI50 [14]: 647 nM
- TGI [14]: 1900 nM
- CC50 [14]: 6600 nM
- GI50 [15]: 477 nM
- IC50 [15]: 480 nM
- TGI [15]: > 50000 nM
- CC50 [15]: > 50000 nM
- GI50 [16]: 618 nM
- IC50 [16]: 620 nM
- TGI [16]: 1650 nM
- CC50 [16]: 4390 nM
- growth at 10 µM [17]: -18.6%
- GI50 [18]: 1170 nM
- TGI [18]: 3160 nM
- CC50 [18]: 18000 nM
- GI50 [19]: 896 nM
- LC50 (concentration killing 50% of cells) [19]: 38200 nM
- TGI [19]: 3550 nM
- growth at 10 µM [20]: -65.6%
- GI50 [21]: 1030 nM
- TGI [21]: 2410 nM
- CC50 [21]: 7160 nM
- GI50 [22]: 964 nM
- TGI [22]: 1980 nM
- CC50 [22]: 4070 nM
- growth at 10 µM [23]: 8.48%
- GI50 [24]: 910 nM
- IC50 [24]: 910 nM
- TGI [24]: 2590 nM
- CC50 [24]: 15600 nM
- growth at 10 µM [25]: -31.1%
- growth at 10 µM [26]: 12.1%
- growth at 10 µM [27]: -28.2%
- growth at 10 µM [28]: 11.3%
- growth at 10 µM [29]: 0.87%
- growth at 10 µM [30]: -34.4%
- GI50 [31]: 853 nM
- LC50 (concentration killing 50% of cells) [31]: 2920 nM
- TGI [31]: 1580 nM
- GI50 [32]: 739 nM
- LC50 [32]: 3720 nM
- TGI [32]: 1660 nM
- growth at 10 µM [33]: -12.2%
- GI50 [34]: 1820 nM
- TGI [34]: 14000 nM
- CC50 [34]: > 50000 nM
